We go through four molecules from PubChem BioAssay (NCI).

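Five concentrations, 48 hours, 96-well plates. TGI: concentration producing complete growth inhibition.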

The subject of the first assay is SN12C renal. In words: inhibition of tumour cell growth, NCI panel, 48 h.
The molecule `O=C(Nc1ccc(C2=NCCN2)cc1)c1cncc(C(=O)Nc2ccc(C3=NCCN3)cc2)c1` yielded a TGI of more than 100 µM.

`CCOC(=O)C(NC(C)=O)(Nc1ccc(F)cc1)C(F)(F)F` (stereo unspecified) yielded a TGI of more than 100 µM.

In turn, `Cc1cn(C2CC(n3cc(Cn4cc(I)c(=O)[nH]c4=O)nn3)C(CO)O2)c(=O)[nH]c1=O` (stereo unspecified) came in with a TGI of more than 100 µM.

As to `CCOc1cc2c(cc1O)/C(=N\OC)C[C@@H]1[C@@H]2CC[C@]2(C)[C@@H](O)CC[C@@H]12`, the TGI was 48.1 µM.

The test system of the next assay is CCRF-CEM leukemia. Briefly: inhibition of tumour cell growth, NCI panel, 48 h.
Regarding `O=C(Nc1ccc(C2=NCCN2)cc1)c1cncc(C(=O)Nc2ccc(C3=NCCN3)cc2)c1`, the TGI is more than 100 µM.

As to `CCOC(=O)C(NC(C)=O)(Nc1ccc(F)cc1)C(F)(F)F` (stereo unspecified), the TGI is more than 100 µM.

Take `Cc1cn(C2CC(n3cc(Cn4cc(I)c(=O)[nH]c4=O)nn3)C(CO)O2)c(=O)[nH]c1=O` (stereo unspecified): the TGI is more than 100 µM.

In turn, `CCOc1cc2c(cc1O)/C(=N\OC)C[C@@H]1[C@@H]2CC[C@]2(C)[C@@H](O)CC[C@@H]12` showed a TGI of more than 100 µM.

The next assay relates to UO-31 renal. In words: inhibition of tumour cell growth, NCI panel, 48 h.
`O=C(Nc1ccc(C2=NCCN2)cc1)c1cncc(C(=O)Nc2ccc(C3=NCCN3)cc2)c1` displayed a TGI of more than 100 µM.

`CCOC(=O)C(NC(C)=O)(Nc1ccc(F)cc1)C(F)(F)F` (stereo unspecified) displayed a TGI of more than 100 µM.

Molecule `CCOc1cc2c(cc1O)/C(=N\OC)C[C@@H]1[C@@H]2CC[C@]2(C)[C@@H](O)CC[C@@H]12` showed a TGI of more than 58.5 µM.

The next assay deals with HCT-116 colon. Briefly: inhibition of tumour cell growth, NCI panel, 48 h.
`O=C(Nc1ccc(C2=NCCN2)cc1)c1cncc(C(=O)Nc2ccc(C3=NCCN3)cc2)c1`: the TGI is more than 100 µM.

In turn, `CCOC(=O)C(NC(C)=O)(Nc1ccc(F)cc1)C(F)(F)F` (stereo unspecified) returned a TGI of more than 100 µM.

The molecule `Cc1cn(C2CC(n3cc(Cn4cc(I)c(=O)[nH]c4=O)nn3)C(CO)O2)c(=O)[nH]c1=O` (stereo unspecified) yielded a TGI of more than 100 µM.

`CCOc1cc2c(cc1O)/C(=N\OC)C[C@@H]1[C@@H]2CC[C@]2(C)[C@@H](O)CC[C@@H]12` had a TGI of more than 38.7 µM.

The next assay concerns OVCAR-8 ovarian. In words: inhibition of tumour cell growth, NCI panel, 48 h.
For `O=C(Nc1ccc(C2=NCCN2)cc1)c1cncc(C(=O)Nc2ccc(C3=NCCN3)cc2)c1`, the TGI was more than 100 µM.

Take `CCOC(=O)C(NC(C)=O)(Nc1ccc(F)cc1)C(F)(F)F` (stereo unspecified): the TGI was more than 100 µM.

For the molecule `Cc1cn(C2CC(n3cc(Cn4cc(I)c(=O)[nH]c4=O)nn3)C(CO)O2)c(=O)[nH]c1=O` (stereo unspecified), the TGI is more than 100 µM.

As for `CCOc1cc2c(cc1O)/C(=N\OC)C[C@@H]1[C@@H]2CC[C@]2(C)[C@@H](O)CC[C@@H]12`, the TGI came to 3.91 µM.

For another assay, the system named is SF-268 CNS. Briefly: inhibition of tumour cell growth, NCI panel, 48 h.
With `O=C(Nc1ccc(C2=NCCN2)cc1)c1cncc(C(=O)Nc2ccc(C3=NCCN3)cc2)c1`, the TGI is more than 31.6 µM.

`CCOC(=O)C(NC(C)=O)(Nc1ccc(F)cc1)C(F)(F)F` (stereo unspecified): the TGI was more than 100 µM.

Consider `Cc1cn(C2CC(n3cc(Cn4cc(I)c(=O)[nH]c4=O)nn3)C(CO)O2)c(=O)[nH]c1=O` (stereo unspecified), for which the TGI is more than 100 µM.

As to `CCOc1cc2c(cc1O)/C(=N\OC)C[C@@H]1[C@@H]2CC[C@]2(C)[C@@H](O)CC[C@@H]12`, the TGI is more than 43.3 µM.

A further assay concerns NCI-H226 lung. Briefly: inhibition of tumour cell growth, NCI panel, 48 h.
The molecule `O=C(Nc1ccc(C2=NCCN2)cc1)c1cncc(C(=O)Nc2ccc(C3=NCCN3)cc2)c1` returned a TGI of more than 100 µM.

`Cc1cn(C2CC(n3cc(Cn4cc(I)c(=O)[nH]c4=O)nn3)C(CO)O2)c(=O)[nH]c1=O` (stereo unspecified): the TGI was more than 100 µM.

With `CCOc1cc2c(cc1O)/C(=N\OC)C[C@@H]1[C@@H]2CC[C@]2(C)[C@@H](O)CC[C@@H]12`, the TGI is 0.654 µM.

A further assay relates to KM12 colon. In words: inhibition of tumour cell growth, NCI panel, 48 h.
With `O=C(Nc1ccc(C2=NCCN2)cc1)c1cncc(C(=O)Nc2ccc(C3=NCCN3)cc2)c1`, the TGI was more than 100 µM.

Consider `CCOC(=O)C(NC(C)=O)(Nc1ccc(F)cc1)C(F)(F)F` (stereo unspecified), for which the TGI was more than 100 µM.

Consider `Cc1cn(C2CC(n3cc(Cn4cc(I)c(=O)[nH]c4=O)nn3)C(CO)O2)c(=O)[nH]c1=O` (stereo unspecified), for which the TGI is more than 100 µM.

Turning to `CCOc1cc2c(cc1O)/C(=N\OC)C[C@@H]1[C@@H]2CC[C@]2(C)[C@@H](O)CC[C@@H]12`, the TGI stood at 7.63 µM.

Another assay concerns BT-549 breast. In words: inhibition of tumour cell growth, NCI panel, 48 h.
Molecule `CCOC(=O)C(NC(C)=O)(Nc1ccc(F)cc1)C(F)(F)F` (stereo unspecified) yielded a TGI of more than 100 µM.

The molecule `Cc1cn(C2CC(n3cc(Cn4cc(I)c(=O)[nH]c4=O)nn3)C(CO)O2)c(=O)[nH]c1=O` (stereo unspecified) returned a TGI of more than 100 µM.

As to `CCOc1cc2c(cc1O)/C(=N\OC)C[C@@H]1[C@@H]2CC[C@]2(C)[C@@H](O)CC[C@@H]12`, the TGI was 40.9 µM.

A further assay relates to SW-620 colon. Briefly: inhibition of tumour cell growth, NCI panel, 48 h.
The molecule `O=C(Nc1ccc(C2=NCCN2)cc1)c1cncc(C(=O)Nc2ccc(C3=NCCN3)cc2)c1` had a TGI of more than 100 µM.

Regarding `CCOC(=O)C(NC(C)=O)(Nc1ccc(F)cc1)C(F)(F)F` (stereo unspecified), the TGI is more than 100 µM.

`Cc1cn(C2CC(n3cc(Cn4cc(I)c(=O)[nH]c4=O)nn3)C(CO)O2)c(=O)[nH]c1=O` (stereo unspecified) yielded a TGI of more than 100 µM.

As to `CCOc1cc2c(cc1O)/C(=N\OC)C[C@@H]1[C@@H]2CC[C@]2(C)[C@@H](O)CC[C@@H]12`, the TGI was more than 35.3 µM.

Another assay has as its system SK-MEL-5 melanoma. Briefly: inhibition of tumour cell growth, NCI panel, 48 h.
Regarding `O=C(Nc1ccc(C2=NCCN2)cc1)c1cncc(C(=O)Nc2ccc(C3=NCCN3)cc2)c1`, the TGI is more than 100 µM.

`CCOC(=O)C(NC(C)=O)(Nc1ccc(F)cc1)C(F)(F)F` (stereo unspecified) returned a TGI of more than 100 µM.

Regarding `Cc1cn(C2CC(n3cc(Cn4cc(I)c(=O)[nH]c4=O)nn3)C(CO)O2)c(=O)[nH]c1=O` (stereo unspecified), the TGI was more than 100 µM.

In the case of `CCOc1cc2c(cc1O)/C(=N\OC)C[C@@H]1[C@@H]2CC[C@]2(C)[C@@H](O)CC[C@@H]12`, the TGI turned out to be 12.6 µM.

In another assay the test system is NCI-H460 lung. In words: inhibition of tumour cell growth, NCI panel, 48 h.
In turn, `O=C(Nc1ccc(C2=NCCN2)cc1)c1cncc(C(=O)Nc2ccc(C3=NCCN3)cc2)c1` registered a TGI of more than 100 µM.

Turning to `CCOC(=O)C(NC(C)=O)(Nc1ccc(F)cc1)C(F)(F)F` (stereo unspecified), the TGI is more than 100 µM.

Take `CCOc1cc2c(cc1O)/C(=N\OC)C[C@@H]1[C@@H]2CC[C@]2(C)[C@@H](O)CC[C@@H]12`: the TGI is 37.3 µM.

The test system of the next assay is LOX IMVI melanoma. Briefly: inhibition of tumour cell growth, NCI panel, 48 h.
With `O=C(Nc1ccc(C2=NCCN2)cc1)c1cncc(C(=O)Nc2ccc(C3=NCCN3)cc2)c1`, the TGI was more than 100 µM.

Turning to `CCOC(=O)C(NC(C)=O)(Nc1ccc(F)cc1)C(F)(F)F` (stereo unspecified), the TGI is more than 100 µM.

`CCOc1cc2c(cc1O)/C(=N\OC)C[C@@H]1[C@@H]2CC[C@]2(C)[C@@H](O)CC[C@@H]12` returned a TGI of 16.7 µM.

Another assay concerns CAKI-1 renal. In words: inhibition of tumour cell growth, NCI panel, 48 h.
On to `O=C(Nc1ccc(C2=NCCN2)cc1)c1cncc(C(=O)Nc2ccc(C3=NCCN3)cc2)c1`, for which the TGI was more than 100 µM.

The molecule `CCOC(=O)C(NC(C)=O)(Nc1ccc(F)cc1)C(F)(F)F` (stereo unspecified) yielded a TGI of more than 100 µM.

Molecule `Cc1cn(C2CC(n3cc(Cn4cc(I)c(=O)[nH]c4=O)nn3)C(CO)O2)c(=O)[nH]c1=O` (stereo unspecified) had a TGI of more than 100 µM.

`CCOc1cc2c(cc1O)/C(=N\OC)C[C@@H]1[C@@H]2CC[C@]2(C)[C@@H](O)CC[C@@H]12` yielded a TGI of more than 23.4 µM.

Another assay deals with A498 renal. Briefly: inhibition of tumour cell growth, NCI panel, 48 h.
As for `O=C(Nc1ccc(C2=NCCN2)cc1)c1cncc(C(=O)Nc2ccc(C3=NCCN3)cc2)c1`, the TGI was more than 100 µM.

The molecule `Cc1cn(C2CC(n3cc(Cn4cc(I)c(=O)[nH]c4=O)nn3)C(CO)O2)c(=O)[nH]c1=O` (stereo unspecified) returned a TGI of more than 100 µM.

Turning to `CCOc1cc2c(cc1O)/C(=N\OC)C[C@@H]1[C@@H]2CC[C@]2(C)[C@@H](O)CC[C@@H]12`, the TGI amounted to 0.944 µM.

The subject of a further assay is OVCAR-4 ovarian. Briefly: inhibition of tumour cell growth, NCI panel, 48 h.
In turn, `O=C(Nc1ccc(C2=NCCN2)cc1)c1cncc(C(=O)Nc2ccc(C3=NCCN3)cc2)c1` returned a TGI of more than 100 µM.

The molecule `CCOC(=O)C(NC(C)=O)(Nc1ccc(F)cc1)C(F)(F)F` (stereo unspecified) gave a TGI of more than 100 µM.

The molecule `Cc1cn(C2CC(n3cc(Cn4cc(I)c(=O)[nH]c4=O)nn3)C(CO)O2)c(=O)[nH]c1=O` (stereo unspecified) showed a TGI of more than 100 µM.

In the case of `CCOc1cc2c(cc1O)/C(=N\OC)C[C@@H]1[C@@H]2CC[C@]2(C)[C@@H](O)CC[C@@H]12`, the TGI is more than 100 µM.

The subject of another assay is IGROV1 ovarian. In words: inhibition of tumour cell growth, NCI panel, 48 h.
Turning to `O=C(Nc1ccc(C2=NCCN2)cc1)c1cncc(C(=O)Nc2ccc(C3=NCCN3)cc2)c1`, the TGI was more than 100 µM.

Turning to `CCOC(=O)C(NC(C)=O)(Nc1ccc(F)cc1)C(F)(F)F` (stereo unspecified), the TGI is more than 100 µM.

On to `CCOc1cc2c(cc1O)/C(=N\OC)C[C@@H]1[C@@H]2CC[C@]2(C)[C@@H](O)CC[C@@H]12`, for which the TGI is more than 30.1 µM.

In another assay the test system is TK-10 renal. In words: inhibition of tumour cell growth, NCI panel, 48 h.
In turn, `CCOC(=O)C(NC(C)=O)(Nc1ccc(F)cc1)C(F)(F)F` (stereo unspecified) came in with a TGI of more than 100 µM.

The molecule `Cc1cn(C2CC(n3cc(Cn4cc(I)c(=O)[nH]c4=O)nn3)C(CO)O2)c(=O)[nH]c1=O` (stereo unspecified) gave a TGI of more than 100 µM.

In turn, `CCOc1cc2c(cc1O)/C(=N\OC)C[C@@H]1[C@@H]2CC[C@]2(C)[C@@H](O)CC[C@@H]12` showed a TGI of more than 100 µM.

In another assay the test system is SF-539 CNS. In words: inhibition of tumour cell growth, NCI panel, 48 h.
Take `O=C(Nc1ccc(C2=NCCN2)cc1)c1cncc(C(=O)Nc2ccc(C3=NCCN3)cc2)c1`: the TGI was more than 100 µM.

With `CCOC(=O)C(NC(C)=O)(Nc1ccc(F)cc1)C(F)(F)F` (stereo unspecified), the TGI is more than 100 µM.

`Cc1cn(C2CC(n3cc(Cn4cc(I)c(=O)[nH]c4=O)nn3)C(CO)O2)c(=O)[nH]c1=O` (stereo unspecified) returned a TGI of more than 100 µM.

A further assay deals with UACC-257 melanoma. Briefly: inhibition of tumour cell growth, NCI panel, 48 h.
Regarding `O=C(Nc1ccc(C2=NCCN2)cc1)c1cncc(C(=O)Nc2ccc(C3=NCCN3)cc2)c1`, the TGI is more than 100 µM.

As to `CCOC(=O)C(NC(C)=O)(Nc1ccc(F)cc1)C(F)(F)F` (stereo unspecified), the TGI is more than 100 µM.

In turn, `Cc1cn(C2CC(n3cc(Cn4cc(I)c(=O)[nH]c4=O)nn3)C(CO)O2)c(=O)[nH]c1=O` (stereo unspecified) yielded a TGI of more than 100 µM.

Molecule `CCOc1cc2c(cc1O)/C(=N\OC)C[C@@H]1[C@@H]2CC[C@]2(C)[C@@H](O)CC[C@@H]12` showed a TGI of more than 48.1 µM.
